Measured values taken from patent publication US20240166630A1, “INDOLE DERIVATIVES AS SEROTONERGIC AGENTS USEFUL FOR THE TREATMENT OF DISORDERS RELATED THERETO” (Mindset Pharma Inc., priority 2021, published 2024).
pEC50, pIC50, pKi: −log10 of the molar value.

Legend:
[1] = Liver microsomes stability with NADPH, human; details: for Remaining Percentage (%) after 60 min Human: 2 μM; for half-life at 2 μM / microsomal CLint at 2 μM: human, microsomes
Method: (§1) The objective of this study was to estimate in vitro metabolic stability of representative compounds of the application in pooled human and male mouse liver microsomes. The concentrations of parent compounds in reaction systems were evaluated by LC-MS/MS for estimating the stability in pooled human and male mouse liver microsomes. The in vitro intrinsic clearances of test compounds were determined as well.
(§2) A master solution in the “Incubation Plate” containing phosphate buffer, ultra-pure H2O, MgCl2 solution and liver microsomes was made according to Table 3. The mixture was pre-warmed at 37° C. water bath for 5 minutes.
(§3) 40 μL of 10 mM NADPH solution was added to each well. The final concentration of NADPH was 1 mM. The negative control samples were prepared by replacing NADPH with 40 μL of ultra-pure H2O. Samples were prepared in duplicate. Negative controls were prepared in singlet.
(§4) The reaction was started with the addition of 4 μL of 200 μM test compounds or control compounds to each master solution to get the final concentration of 2 μM. This study was performed in duplicate.
(§5) Aliquots of 50 μL were taken from the reaction solution at 0, 15, 30, 45 and 60 minutes. The reaction solutions were stopped by the addition of 4 volumes of cold methanol with IS (100 nM alprazolam, 200 nM imipramine, 200 nM labetalol and 2 μM ketoprofen). Samples were centrifuged at 3,220 g for 40 minutes. Aliquot of 90 μL of the supernatant was mixed with 90 μL of ultra-pure H2O and then was used for LC-MS/MS analysis.
(§6) LC/MS analysis was performed for all samples from this study using a Shimadzu liquid chromatograph separation system equipped with degasser DGU-20A5R; solvent delivery unit LC-30AD; system controller SIL-30AC; column oven CTO-30A; CTC Analytics HTC PAL System; Mass spectrometric analysis was performed using an Triple Quad™ 5500 instrument.
(§7) All calculations were carried out using Microsoft Excel. Peak area ratios of test compound to internal standard (listed in the below table) were determined from extracted ion chromatograms.
(§8) All calculations were carried out using Microsoft Excel. Peak areas were determined from extracted ion chromatograms. The slope value, k, was determined by linear regression of the natural logarithm of the remaining percentage of the parent drug vs. incubation time curve.
(§9) The in vitro half-life (in vitro t1/2) was determined from the slope value:
(§10) Conversion of the in vitro t1/2 (min) into the in vitro intrinsic clearance (in vitro CLint, in μL/min/mg proteins) was done using the following equation (mean of duplicate determinations): […]

[2] = Liver microsomes stability with NADPH, mouse; details: for half-life at 2 μM / microsomal CLint at 2 μM: male, mouse, microsomes; for Remaining Percentage (%) after 60 min Mouse: mouse liver microsomes, with NADPH, 2 μM
Method: as §1, §2, §3, §4, §5, §6, §7, §8, §9, §10

[3] = Liver microsomes stability with NADPH, rat; details: for Remaining Percentage (%) after 60 min Rat: rat liver microsomes, with NADPH, 2 μM; for half-life at 2 μM / microsomal CLint at 2 μM: rat, microsomes
[4] = rapid first-pass metabolism by monoamine oxidase; cited from earlier work
[5] = molecular target: T1, human 5-HT2A (Homo sapiens, UniProt P28223); assay: Radioligand binding assay on human 5-HT2A receptor ([3H]-ketanserin)
T1 sequence (P28223 whole entry): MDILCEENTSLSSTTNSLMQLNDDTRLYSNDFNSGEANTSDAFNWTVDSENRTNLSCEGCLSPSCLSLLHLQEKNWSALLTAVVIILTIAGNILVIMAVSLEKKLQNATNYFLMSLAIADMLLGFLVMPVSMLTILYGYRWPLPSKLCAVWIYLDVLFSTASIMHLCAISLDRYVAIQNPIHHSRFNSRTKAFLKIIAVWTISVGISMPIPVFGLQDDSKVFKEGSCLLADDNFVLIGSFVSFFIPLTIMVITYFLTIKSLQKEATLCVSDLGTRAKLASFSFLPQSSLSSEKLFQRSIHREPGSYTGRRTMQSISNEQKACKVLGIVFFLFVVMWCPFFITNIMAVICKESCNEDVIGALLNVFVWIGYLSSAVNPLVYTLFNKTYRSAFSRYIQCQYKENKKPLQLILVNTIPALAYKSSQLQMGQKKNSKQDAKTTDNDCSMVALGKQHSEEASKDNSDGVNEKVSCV
Method: i. The assay buffer was prepared following the table below;
iii. Prepared (v/v) DMSO as follows: a. […] The plates were sealed and incubated at 4° C. for 3 hrs;
iv. Preparation of assay plates: a.
vi. The plates were sealed and incubated at 27° C. for 90 min.

[6] = molecular target: T2, human 5-HT2A (h5-HT2A) receptor (Homo sapiens, UniProt P28223); assay: FLIPR assay, human 5-HT2A receptor under agonist mode; type: cell-based
T2 construct: expressed in transfected cells; kept under G418 and hygromycin B selection
T2 sequence (P28223 whole entry): as above
Method: I. Assessment of the Activated Effect of Compounds of Formula I-B Targeting on Human 5-HT2A (h5-HT2A) Receptor Under Agonist Mode:
1. The cells were cultured in cell culture medium (DMEM containing 10% FBS, 1× penicillin-streptomycin 300 μg/ml G418 and 100 μg/ml hygromycin B) at 37° C., 5% (v/v) CO2.
2. One day before the assays, the cells were detached using TrypLE™ Express and count cells using cell counter.
3. 20000 cells/well were seeded in 30 μl/well culture medium to a 384-well cell plate and incubated the cells overnight at 37° C., 5% (v/v) CO2.
4. On the assay day, 2×dye solution was prepared following the manual of the FLIPR® Calcium 6 Assay Kit: i. The dye was diluted with assay buffer (20 mM HEPES in 1×HBSS, PH7.4); ii. probenecid was added to the final concentration of 5 mM; iii. Vortexed vigorously for 1-2 minutes.
5. Medium was removed from cell plate by flicking the cell plate on towel papers.
7. The cell plate was placed on plate shaker, the plate agitated at 600 rpm for 2 minutes. The plate was incubated at 37° C. for 2 hours followed by additional 15-minute incubation at 25° C.
8. 3×compound was prepared in assay buffer: a. Reference compounds were diluted to required concentration with DMSO. The compounds were added to a 384-well compound plate; b. Serial dilutions were performed; c. 10 mM test compounds were added to the compound plate, 3-fold serial dilutions were performed. […] 20 μl/well assay buffer was added to the compound plate; f.
9. The cell plate, compound plate and tips were placed into FLIPR, 10 μl of 3× compound was transferred to the cell plate per well with FLIPR.
i. The normalized fluorescence reading (RFU) was calculated as shown follow, while Fmax and Fmin stand for maximum and minimum of calcium signal during defined time window: RFU=Fmax−Fmin
ii. The percentage activation was calculated by using following equation: […]
iii. EC50 was calculated by fitting % activation against log of compound concentrations with Hill equation using Xlfit.

[7] = molecular target: T1, human 5-HT2A; details: read-out: binding affinity 5-HT2A; literature value; cited from earlier work
[8] = human liver microsomes, with NADPH

| SMILES | CLint (μL/min/mg protein) Human [1, 8] [μL/min/mg protein] | Half-Life t1/2 (min) Human [1, 8] | Remaining Percentage (%) after 60 min Human [1, 8] [%] | half-life at 2 μM [2] [h] | microsomal CLint at 2 μM [2] [µL/min/mg] | Remaining Percentage (%) after 60 min Mouse [2] [%] | Remaining Percentage (%) after 60 min Rat [3] [%] | half-life at 2 μM [3] [h] | microsomal CLint at 2 μM [3] [µL/min/mg] | oral activity [4] | pIC50 [5] | pEC50 [6] | pKi [7] | half-life at 2 μM [1] [h] | microsomal CLint at 2 μM [1] [µL/min/mg] |
| --- | --- | --- | --- | --- | --- | --- | --- | --- | --- | --- | --- | --- | --- | --- | --- |
| COc1ccc2[nH]cc(CCN(C)C)c2c1 [Compound 5-MeO-DMT, 5-methoxy-N,N-dimethyltryptamine, reference compound] | 101.08 | 13.75 min | 4.82 | 0.842 | 27.4 | 89.36 | 16.02 | 0.378 | 61 | not orally active |  |  |  |  |  |
| CN(C)CCc1c[nH]c2ccccc12 [DMT, N,N-dimethyltryptamine, reference compound] |  |  | 0.72 | 0.842 | 27.4 | 65.90 | 17.29 | 0.378 | 61 | not orally active | 5.30 to 6.30 | 6.00 to 7.00 | 9.63 |  |  |
| [2H]C([2H])(c1c[nH]c2ccccc12)[C@H]1CCCN1C [I-B-2, (R)-3-((1-methylpyrrolidin-2-yl)methyl-d2)-1H-indole] |  |  | 64.96 | 1.02 | 47.1 | 50.81 | 0.81 | 0.144 | 46.3 |  | > 6.30 | > 7.00 |  | 1.61 | 9.64 |
| [2H]C([2H])(c1c[nH]c2ccccc12)[C@H]1CCCN1 [I-B-8, (R)-3-(pyrrolidin-2-ylmethyl-d2)-1H-indole] |  |  | 91.11 | 1.22 | 18.9 | 56.72 | 38.89 | 0.734 | 31.5 |  | 5.30 to 6.30 | 6.00 to 7.00 |  | 7.44 | 3.1 |
| [2H]C([2H])([2H])N1CCC[C@@H]1Cc1c[nH]c2ccc(OC)cc12 [I-B-9, (R)-5-methoxy-3-((1-(methyl-d3)pyrrolidin-2-yl)methyl)-1H-indole] |  |  |  |  |  |  |  |  |  |  | > 6.30 | > 7.00 |  |  |  |
| [2H]C([2H])(c1c[nH]c2ccc(OC)cc12)[C@H]1CCCN1C [I-B-10, (R)-5-methoxy-3-((1-methylpyrrolidin-2-yl)methyl-d2)-1H-indole] |  |  | 78.24 | 1.51 | 38.4 | 63.17 | 35.87 | 0.676 | 29 |  | > 6.30 | > 7.00 |  | 2.82 | 6.86 |
| [2H]C([2H])([2H])Oc1ccc2[nH]cc(C[C@H]3CCCN3C([2H])([2H])[2H])c2c1 [I-B-11, (R)-5-(methoxy-d3)-3-((1-(methyl-d3)pyrrolidin-2-yl)methyl)-1H-indole] |  |  | 85.35 | 1.36 | 40.6 | 60.16 | 34.51 | 0.651 | 29.5 |  | > 6.30 | > 7.00 |  | 4.38 | 5.01 |
| [2H]C([2H])([2H])Oc1ccc2[nH]cc(C([2H])([2H])[C@H]3CCCN3C([2H])([2H])[2H])c2c1 [I-B-12, (R)-5-(methoxy-d3)-3-((1-(methyl-d3)pyrrolidin-2-yl)methyl-d2)-1H-indole] |  |  | 78.24 | 1.51 | 38.4 | 63.17 | 35.87 | 0.676 | 29 |  | > 6.30 | > 7.00 |  | 2.82 | 6.86 |
| [2H]C([2H])(c1c[nH]c2ccc(OC)cc12)[C@H]1CCCN1C([2H])([2H])[2H] [I-B-13, (R)-5-methoxy-3-((1-(methyl-d3)pyrrolidin-2-yl)methyl-d2)-1H-indole] |  |  |  |  |  |  |  |  |  |  | > 6.30 | > 7.00 |  |  |  |
| [2H]C([2H])([2H])Oc1ccc2[nH]cc(C[C@H]3CCCN3)c2c1 [I-B-14, (R)-5-(methoxy-d3)-3-(pyrrolidin-2-ylmethyl)-1H-indole] |  | ∞ | 110.97 | 8.15 | 10.9 | 91.85 | 92.44 | 8.82 | 4.33 |  | > 6.30 | > 7.00 |  |  |  |
| [2H]C([2H])([2H])Oc1ccc2[nH]cc(C([2H])([2H])[C@H]3CCCN3)c2c1 [I-B-15, (R)-5-(methoxy-d3)-3-(pyrrolidin-2-ylmethyl-d2)-1H-indole] |  |  |  |  |  |  |  |  |  |  | > 6.30 | > 7.00 |  |  |  |
| [2H]C([2H])(c1c[nH]c2ccc(OC)cc12)[C@H]1CCCN1 [I-B-16, (R)-5-methoxy-3-(pyrrolidin-2-ylmethyl-d2)-1H-indole] |  |  | 85.35 | 1.36 | 40.6 | 60.16 | 34.51 | 0.651 | 29.5 |  | > 6.30 | > 7.00 |  | 4.38 | 5.01 |
